# Results taken from patent US10577363B2, “Substituted piperidine compounds” (EPIZYME, INC., priority 2014, dated 2020).
# Experiments:
# SMYD3 [1] = target: T1, SMYD3 (Homo sapiens (Human), UniProt Q9H7B4); assay: SMYD3 biochemical assay (SPA, 3H-SAM methylation of MEKK2 protein substrate); settings: read-out: SMYD3 Biochem IC50*
# Method in brief: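 Enzyme: untagged full-length human SMYD3 from E. coli; substrate GST-tagged MEKK2 from insect cells. Buffer 25 mM Tris-Cl pH 8.0, 1 mM TCEP, 0.005% BSG/Tween 20. 30 min compound–enzyme preincubation at RT; 3H-SAM/MEKK2 start; stop with cold SAM (100 uM final); SPA readout in cpm.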
# SMYD3 [2] = target: T1, SMYD3; assay: SMYD3 cell assay (Trimethyl-MEKK2 In-Cell Western in 293T/17 cells); type: cell-based; settings: read-out: SMYD3 Cell IC50*
# Method in brief: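 In-Cell Western readout: methanol-fixed cells stained for trimethyl-MEKK2 and flag tag, ratio per well normalized to DMSO and background controls.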
# T1 sequence (Q9H7B4 whole entry): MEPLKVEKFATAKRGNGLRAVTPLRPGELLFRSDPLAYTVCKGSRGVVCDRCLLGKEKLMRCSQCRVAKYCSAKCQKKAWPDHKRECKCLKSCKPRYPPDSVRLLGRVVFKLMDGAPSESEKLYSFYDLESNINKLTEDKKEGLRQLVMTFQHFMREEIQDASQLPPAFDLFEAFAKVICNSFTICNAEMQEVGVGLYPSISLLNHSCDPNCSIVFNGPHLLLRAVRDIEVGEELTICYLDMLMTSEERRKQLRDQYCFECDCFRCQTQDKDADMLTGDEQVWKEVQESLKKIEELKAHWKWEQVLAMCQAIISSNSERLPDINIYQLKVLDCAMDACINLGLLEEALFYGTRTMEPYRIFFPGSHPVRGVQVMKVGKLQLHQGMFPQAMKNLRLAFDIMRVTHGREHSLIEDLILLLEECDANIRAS
Compound,IC50 (SMYD3 [1]),IC50 (SMYD3 [2])
"COCCNC1CCN(S(=O)(=O)N2CC[C@H](NC(=O)c3cc(C4CC4)on3)C[C@@H]2C)CC1 [compound 861, 5-cyclopropyl-N-((2S,4S)-1-((4-((2-methoxyethyl)amino)piperidin-1-yl)sulfonyl)-2-methylpiperidin-4-yl)isoxazole-3-carboxamide]",7.65 nM,102 nM
"CCCN(C)C1CCN(S(=O)(=O)N2[C@@H]3CC[C@H]2C[C@@H](NC(=O)c2cc(C4CC4)on2)C3)CC1 [compound 862, 5-cyclopropyl-N-((1R,3r,5S)-8-((4-(methyl(propyl)amino)piperidin-1-yl)sulfonyl)-8-azabicyclo[3.2.1]octan-3-yl)isoxazole-3-carboxamide]",7.69 nM,76.5 nM
"CCCNC1CCN(S(=O)(=O)N2[C@@H]3CC[C@H]2C[C@@H](NC(=O)c2cc(C4CC4)on2)C3)CC1 [compound 863, 5-cyclopropyl-N-((1R,3r,5S)-8-((4-(propylamino)piperidin-1-yl)sulfonyl)-8-azabicyclo[3.2.1]octan-3-yl)isoxazole-3-carboxamide]",7.77 nM,80 nM
"CN1CC2CC1CN2S(=O)(=O)N1[C@@H]2CC[C@H]1C[C@@H](NC(=O)c1cc(C3CC3)on1)C2 [compound 864, 5-cyclopropyl-N-((1R,3r,5S)-8-((5-methyl-2,5-diazabicyclo[2.2.1]heptan-2-yl)sulfonyl)-8-azabicyclo[3.2.1]octan-3-yl)isoxazole-3-carboxamide]",8.22 nM,86.2 nM
"CCNC1CCN(S(=O)(=O)N2[C@@H]3CC[C@H]2C[C@@H](NC(=O)c2cc(C4CC4)on2)C3)CC1 [compound 865, 5-cyclopropyl-N-((1R,3r,5S)-8-((4-(ethylamino)piperidin-1-yl)sulfonyl)-8-azabicyclo[3.2.1]octan-3-yl)isoxazole-3-carboxamide]",8.55 nM,90.2 nM
"CC(C)CN1C2CCC1CN(S(=O)(=O)N1[C@@H]3CC[C@H]1C[C@@H](NC(=O)c1cc(C4CC4)on1)C3)C2 [compound 866, 5-cyclopropyl-N-((1R,3r,5S)-8-((8-isobutyl-3,8-diazabicyclo[3.2.1]octan-3-yl)sulfonyl)-8-azabicyclo[3.2.1]octan-3-yl)isoxazole-3-carboxamide]",8.63 nM,201 nM
"O=C(N[C@H]1C[C@H]2CC[C@@H](C1)N2S(=O)(=O)N1CC2CCC(C1)N2CCc1ccccc1)c1cc(C2CC2)on1 [compound 867, 5-cyclopropyl-N-((1R,3r,5S)-8-((8-phenethyl-3,8-diazabicyclo[3.2.1]octan-3-yl)sulfonyl)-8-azabicyclo[3.2.1]octan-3-yl)isoxazole-3-carboxamide]",8.67 nM,844 nM
"O=C(N[C@H]1C[C@H]2CC[C@@H](C1)N2S(=O)(=O)N1CCC(NCCCN2CCCC2)CC1)c1cc(C2CC2)on1 [compound 868, 5-cyclopropyl-N-((1R,3r,5S)-8-((4-((3-(pyrrolidin-1-yl)propyl)amino)piperidin-1-yl)sulfonyl)-8-azabicyclo[3.2.1]octan-3-yl)isoxazole-3-carboxamide]",8.68 nM,310 nM
"COCCCNC1CCN(S(=O)(=O)N2[C@@H]3CC[C@H]2C[C@@H](NC(=O)c2cc(C4CC4)on2)C3)CC1 [compound 869, 5-cyclopropyl-N-((1R,3r,5S)-8-((4-((3-methoxypropyl)amino)piperidin-1-yl)sulfonyl)-8-azabicyclo[3.2.1]octan-3-yl)isoxazole-3-carboxamide]",9.05 nM,117 nM
"COCCNC1CCN(S(=O)(=O)N2[C@@H]3CC[C@H]2C[C@@H](NC(=O)c2cc(C4CC4)on2)C3)CC1 [compound 870, 5-cyclopropyl-N-((1R,3r,5S)-8-((4-((2-methoxyethyl)amino)piperidin-1-yl)sulfonyl)-8-azabicyclo[3.2.1]octan-3-yl)isoxazole-3-carboxamide]",9.34 nM,130 nM
"CC(C)c1cc(C(=O)N[C@H]2C[C@H]3CC[C@@H](C2)N3S(=O)(=O)[C@H]2CC[C@H](N)CC2)no1 [compound 871, N-((1R,3R,5S)-8-(((1r,4R)-4-aminocyclohexyl)sulfonyl)-8-azabicyclo[3.2.1]octan-3-yl)-5-isopropylisoxazole-3-carboxamide]",9.38 nM,86.7 nM
"CCN(CC)C1CCN(S(=O)(=O)N2CC[C@H](NC(=O)c3cc(C4CC4)on3)C[C@@H]2C)CC1 [compound 872, 5-cyclopropyl-N-((2S,4S)-1-((4-(diethylamino)piperidin-1-yl)sulfonyl)-2-methylpiperidin-4-yl)isoxazole-3-carboxamide]",9.46 nM,183 nM
"C[C@H]1CN(S(=O)(=O)[C@H]2CC[C@@H](N)CC2)CC[C@H]1NC(=O)c1cc(C2CC2)on1 [compound 873, N-((3S,4R)-1-(((1s,4R)-4-aminocyclohexyl)sulfonyl)-3-methylpiperidin-4-yl)-5-cyclopropylisoxazole-3-carboxamide]",9.62 nM,169 nM
"CN(CCCN1CCCC1)C1CCN(S(=O)(=O)N2[C@@H]3CC[C@H]2C[C@@H](NC(=O)c2cc(C4CC4)on2)C3)CC1 [compound 874, 5-cyclopropyl-N-((1R,3r,5S)-8-((4-(methyl(3-(pyrrolidin-1-yl)propyl)amino)piperidin-1-yl)sulfonyl)-8-azabicyclo[3.2.1]octan-3-yl)isoxazole-3-carboxamide]",9.87 nM,237 nM
"C[C@H](C1CCN(C)CC1)S(=O)(=O)N1[C@@H]2CC[C@H]1C[C@@H](NC(=O)c1cc(C3CC3)on1)C2 [compound 876, 5-cyclopropyl-N-((1R,3R,5S)-8-(((R)-1-(1-methylpiperidin-4-yl)ethyl)sulfonyl)-8-azabicyclo[3.2.1]octan-3-yl)isoxazole-3-carboxamide]",10 nM,186 nM
"C[C@@H]1C[C@@H](NS(=O)(=O)N2[C@@H]3CC[C@H]2C[C@@H](NC(=O)c2cc(C4CC4)on2)C3)CCN1 [compound 877, 5-cyclopropyl-N-((1R,3S,5S)-8-(N-((2R,4S)-2-methylpiperidin-4-yl)sulfamoyl)-8-azabicyclo[3.2.1]octan-3-yl)isoxazole-3-carboxamide]",10 nM,176 nM
"O=C(N[C@H]1C[C@H]2CC[C@@H](C1)N2S(=O)(=O)[C@@H]1CCCCNC1)c1cc(C2CC2)on1 [compound 878, N-((1R,3R,5S)-8-(((R)-azepan-3-yl)sulfonyl)-8-azabicyclo[3.2.1]octan-3-yl)-5-cyclopropylisoxazole-3-carboxamide]",10.1 nM,241 nM
"CC(C)c1cc(C(=O)N[C@H]2C[C@H]3CC[C@@H](C2)N3S(=O)(=O)CC2CCN(C)CC2)no1 [compound 879, 5-isopropyl-N-((1R,3r,5S)-8-(((1-methylpiperidin-4-yl)methyl)sulfonyl)-8-azabicyclo[3.2.1]octan-3-yl)isoxazole-3-carboxamide]",10.7 nM,206 nM
"CN(Cc1ccccc1)C1CCN(S(=O)(=O)N2[C@@H]3CC[C@H]2C[C@@H](NC(=O)c2cc(C4CC4)on2)C3)CC1 [compound 880, N-((1R,3r,5S)-8-((4-(benzyl(methyl)amino)piperidin-1-yl)sulfonyl)-8-azabicyclo[3.2.1]octan-3-yl)-5-cyclopropylisoxazole-3-carboxamide]",10.8 nM,455 nM
"O=C(N[C@H]1C[C@H]2CC[C@@H](C1)N2S(=O)(=O)N1CC2CCC(C1)N2CCO)c1cc(C2CC2)on1 [compound 881, 5-cyclopropyl-N-((1R,3r,5S)-8-((8-(2-hydroxyethyl)-3,8-diazabicyclo[3.2.1]octan-3-yl)sulfonyl)-8-azabicyclo[3.2.1]octan-3-yl)isoxazole-3-carboxamide]",10.9 nM,68.9 nM
"C[C@@H](C1CCNCC1)S(=O)(=O)N1[C@@H]2CC[C@H]1C[C@@H](NC(=O)c1cc(C3CC3)on1)C2 [compound 882, 5-cyclopropyl-N-((1R,3S,5S)-8-(((S)-1-(piperidin-4-yl)ethyl)sulfonyl)-8-azabicyclo[3.2.1]octan-3-yl)isoxazole-3-carboxamide]",11.2 nM,85.6 nM
"O=C(N[C@H]1C[C@H]2CC[C@@H](C1)N2S(=O)(=O)[C@H]1CCCCNC1)c1cc(C2CC2)on1 [compound 883, N-((1R,3S,5S)-8-(((S)-azepan-3-yl)sulfonyl)-8-azabicyclo[3.2.1]octan-3-yl)-5-cyclopropylisoxazole-3-carboxamide]",12 nM,128 nM
"O=C(N[C@H]1C[C@H]2CC[C@@H](C1)N2S(=O)(=O)NC1CCN[C@@H](Cc2ccccc2)C1)c1cc(C2CC2)on1 (stereo partly drawn) [compound 884, N-((1R,3S,5S)-8-(N-((2S)-2-benzylpiperidin-4-yl)sulfamoyl)-8-azabicyclo[3.2.1]octan-3-yl)-5-cyclopropylisoxazole-3-carboxamide]",12.1 nM,283 nM
"CN[C@H]1CC[C@H](S(=O)(=O)N2CC[C@@H](NC(=O)c3cc(C4CC4)on3)[C@@H](C)C2)CC1 [compound 885, 5-cyclopropyl-N-((3S,4R)-3-methyl-1-(((1r,4S)-4-(methylamino)cyclohexyl)sulfonyl)piperidin-4-yl)isoxazole-3-carboxamide]",12.1 nM,157 nM
"C[C@H]1C[C@@H](NS(=O)(=O)N2[C@@H]3CC[C@H]2C[C@@H](NC(=O)c2cc(C4CC4)on2)C3)CCN1 [compound 886, 5-cyclopropyl-N-((1R,3S,5S)-8-(N-((2S,4S)-2-methylpiperidin-4-yl)sulfamoyl)-8-azabicyclo[3.2.1]octan-3-yl)isoxazole-3-carboxamide]",12.1 nM,205 nM
